# Assay results published in US11040981B2, “Pyrrolotriazine compounds and methods of inhibiting TAM kinases” (Syros Pharmaceuticals, Inc., priority 2017, dated 2021).
# Tests used:
# TYRO3 = target: T1, TYRO3 (Homo sapiens, UniProt Q06418); experiment: TR-FRET kinase activity assay, TYRO3; type: biochemical; conditions: ATP at Km, 60 minutes
# T1 sequence (Q06418 41-890): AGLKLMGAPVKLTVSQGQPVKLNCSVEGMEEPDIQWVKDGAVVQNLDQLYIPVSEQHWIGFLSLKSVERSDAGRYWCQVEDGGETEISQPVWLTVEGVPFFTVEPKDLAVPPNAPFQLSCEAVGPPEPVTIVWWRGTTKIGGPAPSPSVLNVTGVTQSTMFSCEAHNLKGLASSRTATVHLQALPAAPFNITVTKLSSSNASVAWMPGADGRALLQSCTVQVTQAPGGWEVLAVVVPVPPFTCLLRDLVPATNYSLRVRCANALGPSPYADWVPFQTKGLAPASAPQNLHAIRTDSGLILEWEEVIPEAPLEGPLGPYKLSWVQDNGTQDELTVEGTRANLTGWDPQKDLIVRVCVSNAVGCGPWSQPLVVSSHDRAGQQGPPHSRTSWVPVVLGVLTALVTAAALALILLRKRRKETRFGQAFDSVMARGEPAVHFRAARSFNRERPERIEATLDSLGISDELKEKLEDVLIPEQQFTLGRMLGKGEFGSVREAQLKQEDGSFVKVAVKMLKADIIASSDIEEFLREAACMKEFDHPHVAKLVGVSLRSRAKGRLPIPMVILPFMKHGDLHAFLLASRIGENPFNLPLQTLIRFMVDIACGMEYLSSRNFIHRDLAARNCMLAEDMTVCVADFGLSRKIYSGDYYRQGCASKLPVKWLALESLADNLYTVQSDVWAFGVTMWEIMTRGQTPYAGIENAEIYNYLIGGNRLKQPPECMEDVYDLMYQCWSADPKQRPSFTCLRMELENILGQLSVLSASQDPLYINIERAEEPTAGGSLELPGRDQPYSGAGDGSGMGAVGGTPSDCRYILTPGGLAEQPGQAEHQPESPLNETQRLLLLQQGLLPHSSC
# Outline: (§1)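 IC50 reflects the drop in TR-FRET between Eu anti-phosphotyrosine antibody and labelled peptide after a 60-minute room-temperature reaction. Buffer was 50 mM HEPES pH 7.5 with 10 mM MgCl2, 1 mM EGTA, 0.01% Brij 35 and 1 mM DTT, with ATP at Km per enzyme and EDTA quench.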
# FLT3 = target: T2, FLT3 (Homo sapiens, UniProt P36888); experiment: TR-FRET kinase activity assay, FLT3; type: biochemical; conditions: ATP at Km, 60 minutes
# T2 sequence (P36888 27-993): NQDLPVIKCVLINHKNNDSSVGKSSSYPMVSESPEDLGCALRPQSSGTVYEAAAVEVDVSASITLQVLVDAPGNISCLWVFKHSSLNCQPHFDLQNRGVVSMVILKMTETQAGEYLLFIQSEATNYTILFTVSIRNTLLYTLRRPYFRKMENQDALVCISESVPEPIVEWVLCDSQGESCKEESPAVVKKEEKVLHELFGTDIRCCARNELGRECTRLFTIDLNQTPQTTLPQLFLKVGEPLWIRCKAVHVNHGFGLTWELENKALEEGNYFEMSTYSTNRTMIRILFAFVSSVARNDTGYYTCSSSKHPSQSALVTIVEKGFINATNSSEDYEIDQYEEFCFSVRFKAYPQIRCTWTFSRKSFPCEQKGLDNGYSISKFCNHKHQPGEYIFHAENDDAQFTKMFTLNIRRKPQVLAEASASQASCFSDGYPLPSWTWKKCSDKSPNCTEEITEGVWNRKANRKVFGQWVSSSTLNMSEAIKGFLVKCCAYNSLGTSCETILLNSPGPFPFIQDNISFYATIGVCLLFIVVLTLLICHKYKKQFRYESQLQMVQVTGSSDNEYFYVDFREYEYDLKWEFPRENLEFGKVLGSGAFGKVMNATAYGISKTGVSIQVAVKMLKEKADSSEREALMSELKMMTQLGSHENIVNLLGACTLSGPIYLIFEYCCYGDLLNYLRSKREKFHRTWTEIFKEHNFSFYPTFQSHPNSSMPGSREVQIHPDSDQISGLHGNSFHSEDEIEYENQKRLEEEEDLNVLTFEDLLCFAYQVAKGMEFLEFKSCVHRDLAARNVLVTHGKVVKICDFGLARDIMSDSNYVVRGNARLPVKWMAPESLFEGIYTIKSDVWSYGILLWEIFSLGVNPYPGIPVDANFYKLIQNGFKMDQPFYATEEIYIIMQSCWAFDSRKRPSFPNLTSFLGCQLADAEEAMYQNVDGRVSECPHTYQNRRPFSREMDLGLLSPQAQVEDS
# Outline: as §1
structure (smiles),measurement,setting,value
COC[C@H](C)Nc1ncc2c(C3=C[C@@H]4CC[C@H](C3)N4)cc([C@H]3CC[C@H](O)CC3)n2n1 [Compound 461],IC50,TYRO3,≤ 100 nM
same,IC50,FLT3,1000 to 10000 nM
COC[C@H](C)Nc1ncc2c(-c3ccc(C(C)(C)C(=O)N4CCOCC4)s3)cc([C@H]3CC[C@H](O)CC3)n2n1 [Compound 460],IC50,TYRO3,≤ 100 nM
same,IC50,FLT3,≤ 100 nM
COC[C@H](C)Nc1ncc2c(C3=C[C@H]4CC[C@@H](C3)N4C(=O)N3CCOCC3)cc([C@H]3CC[C@H](O)CC3)n2n1 [Compound 469],IC50,TYRO3,≤ 100 nM
same,IC50,FLT3,100 to 1000 nM
COC[C@H](C)Nc1ncc2c(-c3cccc(N4C[C@H]5COC[C@H]5C4)c3)cc([C@H]3CC[C@H](O)CC3)n2n1 [Compound 464],IC50,TYRO3,≤ 100 nM
same,IC50,FLT3,100 to 1000 nM
C[C@@H](CC(F)(F)F)Nc1ncc2c([C@H]3CC[C@@H](C(=O)N4CCOCC4)CC3)cc([C@H]3CC[C@H](O)CC3)n2n1 [Compound 446],IC50,TYRO3,≤ 100 nM
same,IC50,FLT3,≤ 100 nM
COC[C@H](C)Nc1ncc2c(-c3ccnc(N4CCN(C(=O)OC5COC5)CC4)c3)cc([C@H]3CC[C@H](O)CC3)n2n1 [Compound 504],IC50,TYRO3,≤ 100 nM
same,IC50,FLT3,100 to 1000 nM
COC[C@H](C)Nc1ncc2c(-c3ccnc(N4CCN(S(=O)(=O)C5CC5)CC4)c3)cc([C@H]3CC[C@H](O)CC3)n2n1 [Compound 491],IC50,TYRO3,≤ 100 nM
same,IC50,FLT3,100 to 1000 nM
COC[C@H](C)Nc1ncc2c(-c3cnn(C(C)(C)C(=O)N4Cc5nc(C)sc5C4)c3)cc([C@H]3CC[C@H](O)CC3)n2n1 [Compound 495],IC50,TYRO3,≤ 100 nM
same,IC50,FLT3,1000 to 10000 nM
"CC[C@H](C)Nc1ncc2c(-c3ccc(CN4CCN(C)CC4)cc3)cc([C@H]3CC[C@](C)(O)CC3)n2n1 (relative stereo) [Compound 132, (trans)-4-(2-((S)-sec-butylamino)-5-(4-((4-methylpiperazin-1-yl)methyl)phenyl)pyrrolo[2,1-f][1,2,4]triazin-7-yl)-1-methylcyclohexanol]",IC50,TYRO3,≤ 100 nM
same,IC50,FLT3,≤ 100 nM
COC[C@H](C)Nc1ncc2c(-c3cnn(C[C@@H]4CC(=O)N(C)C4)c3)cc([C@H]3CC[C@H](O)CC3)n2n1 [Compound 473],IC50,TYRO3,≤ 100 nM
same,IC50,FLT3,100 to 1000 nM
COC[C@H](C)Nc1ncc2c(-c3cnn(C(C)(C)C(=O)N4CCC(C)(C#N)CC4)c3)cc([C@H]3CC[C@H](O)CC3)n2n1 [Compound 451],IC50,TYRO3,≤ 100 nM
same,IC50,FLT3,100 to 1000 nM
COC[C@H](C)Nc1ncc2c(C3=C[C@@H]4CC[C@H](C3)N4C(C)=O)cc([C@H]3CC[C@H](O)CC3)n2n1 [Compound 462],IC50,TYRO3,≤ 100 nM
same,IC50,FLT3,100 to 1000 nM
COC[C@H](C)Nc1ncc2c(CC#N)cc([C@H]3CC[C@H](O)CC3)n2n1 [Compound 497],IC50,TYRO3,≤ 100 nM
same,IC50,FLT3,1000 to 10000 nM
COC[C@H](C)Nc1ncc2c(-c3cccc(C4CCc5nc(C)[nH]c5C4)c3)cc([C@H]3CC[C@H](O)CC3)n2n1 (stereo partly drawn) [Compound 498],IC50,TYRO3,≤ 100 nM
same,IC50,FLT3,100 to 1000 nM
CCCCC[C@H](C)Nc1ncc2c([C@H]3CC[C@@H](C(=O)N4CCN(C)CC4)CC3)cc([C@H]3CC[C@H](O)CC3)n2n1 [Compound 127],IC50,TYRO3,≤ 100 nM
same,IC50,FLT3,100 to 1000 nM
COC[C@H](C)Nc1ncc2c(-c3cnn(C(C)(C)C(=O)N4CCN(C)CC4)c3)cc([C@H]3CC[C@H](O)CC3)n2n1 [Compound 466],IC50,TYRO3,≤ 100 nM
same,IC50,FLT3,1000 to 10000 nM
COC[C@H](C)Nc1ncc2c(-c3ccnc(F)c3)cc([C@H]3CC[C@H](O)CC3)n2n1 [Compound 505],IC50,TYRO3,≤ 100 nM
same,IC50,FLT3,1000 to 10000 nM
COC[C@H](C)Nc1ncc2c(-c3cnn(C(C)(C)C(=O)C4CCc5sc(C)nc5C4)c3)cc([C@H]3CC[C@H](O)CC3)n2n1 (stereo partly drawn) [Compound 496],IC50,TYRO3,≤ 100 nM
same,IC50,FLT3,1000 to 10000 nM
COC[C@H](C)Nc1ncc2c(C3=CCN(C(=O)OC(C)(C)C)CC3)cc([C@H]3CC[C@H](O)CC3)n2n1 [Compound 425],IC50,TYRO3,≤ 100 nM
same,IC50,FLT3,100 to 1000 nM
CCC1(Nc2ncc3c(-c4ccc(CN5CCN(C)CC5)cc4)cc([C@H]4CC[C@H](O)CC4)n3n2)CCC1 [Compound 126],IC50,TYRO3,100 to 1000 nM
same,IC50,FLT3,1000 to 10000 nM
COC[C@H](C)Nc1ncc2c(-c3ccnc(N4CCC5(CCO5)CC4)c3)cc([C@H]3CC[C@H](O)CC3)n2n1 [Compound 430],IC50,TYRO3,≤ 100 nM
same,IC50,FLT3,100 to 1000 nM
COC[C@H](C)Nc1ncc2c(C3=C[C@H]4CC[C@@H](C3)N4C)cc([C@H]3CC[C@H](O)CC3)n2n1 [Compound 494],IC50,TYRO3,≤ 100 nM
same,IC50,FLT3,1000 to 10000 nM
COC[C@H](C)Nc1ncc2c(C3=C[C@H]4CC[C@@H](C3)N4CC(F)(F)F)cc([C@H]3CC[C@H](O)CC3)n2n1 [Compound 492],IC50,TYRO3,≤ 100 nM
same,IC50,FLT3,1000 to 10000 nM
COC[C@H](C)Nc1ncc2c(-c3cnn(C4COC4)c3)cc(-c3ccc(O)nc3)n2n1 [Compound 501],IC50,TYRO3,≤ 100 nM
same,IC50,FLT3,1000 to 10000 nM
C[C@@H](COC(F)F)Nc1ncc2c(-c3cnn(CCS(C)(=O)=O)c3)cc([C@H]3CC[C@H](O)CC3)n2n1 [Compound 436],IC50,TYRO3,≤ 100 nM
same,IC50,FLT3,100 to 1000 nM
COC[C@H](C)Nc1ncc2c(-c3cnn(CC(C)(C)N4CCOCC4)c3)cc([C@H]3CC[C@H](O)CC3)n2n1 [Compound 507],IC50,TYRO3,≤ 100 nM
same,IC50,FLT3,100 to 1000 nM
COC[C@H](C)Nc1ncc2c(-c3cnn(C(C)(C)C(=O)N4CCOCC4)c3)cc(C3CCc4[nH]ncc4C3)n2n1 (stereo partly drawn) [Compound 488],IC50,TYRO3,≤ 100 nM
same,IC50,FLT3,100 to 1000 nM
COC[C@H](C)Nc1ncc2c(-c3cnn(C[C@@H]4CCO4)c3)cc([C@H]3CC[C@H](O)CC3)n2n1 [Compound 474],IC50,TYRO3,≤ 100 nM
same,IC50,FLT3,100 to 1000 nM
COC[C@H](C)Nc1ncc2c(-c3cnn(C[C@@H]4CCO4)c3)cc([C@H]3CC[C@H](O)CC3)n2n1 [Compound 478],IC50,TYRO3,≤ 100 nM
same,IC50,FLT3,1000 to 10000 nM
COC[C@H](C)Nc1ncc2c(-c3ccc(-c4nn[nH]n4)cc3)cc([C@H]3CC[C@H](O)CC3)n2n1 [Compound 134],IC50,TYRO3,≤ 100 nM
same,IC50,FLT3,1000 to 10000 nM
COC[C@H](C)Nc1ncc2c(-c3ccnc(N4CCOC4=O)c3)cc([C@H]3CC[C@H](O)CC3)n2n1 [Compound 438],IC50,TYRO3,≤ 100 nM
same,IC50,FLT3,1000 to 10000 nM
COC[C@H](C)Nc1ncc2c(C#N)cc([C@H]3CC[C@H](O)CC3)n2n1 [Compound 481],IC50,TYRO3,100 to 1000 nM
same,IC50,FLT3,1000 to 10000 nM
COC[C@H](C)Nc1ncc2c(C3=CCNCC3)cc([C@H]3CC[C@H](O)CC3)n2n1 [Compound 443],IC50,TYRO3,≤ 100 nM
same,IC50,FLT3,1000 to 10000 nM
COC[C@H](C)Nc1ncc2c(C#CC(C)(C)C(=O)N3CCOCC3)cc([C@H]3CC[C@H](O)CC3)n2n1 [Compound 449],IC50,TYRO3,≤ 100 nM
same,IC50,FLT3,1000 to 10000 nM
COC[C@H](C)Nc1ncc2c(C3=C[C@H]4CC[C@@H](C3)N4)cc([C@H]3CC[C@H](O)CC3)n2n1 [Compound 467],IC50,TYRO3,≤ 100 nM
same,IC50,FLT3,1000 to 10000 nM
CC(CC1COC1)Nc1ncc2c(-c3cnn(C4COC4)c3)cc([C@H]3CC[C@H](O)CC3)n2n1 (mixture of isomers) [Compound 447],IC50,TYRO3,1000 to 10000 nM
same,IC50,FLT3,1000 to 10000 nM
